# From ChEMBL document CHEMBL3102853, “Carbonic anhydrase inhibitors. Synthesis, and molecular structure of novel series N-substituted N'-(2-arylmethylthio-4-chloro-5-methylbenzenesulfonyl)guanidines and their inhibition of human cytosolic isozymes I and II and the transmembrane tumor-associated isozymes IX and XII” (Eur J Med Chem, 2014)
# Activity calls are given as the source filed them. No cut-off for these calls is given here.
# Columns and labels:
# Assay type in all cases: functional
# RPMI-8226 = assay: Cytotoxicity against human RPMI8226 cells at 10 uM; settings: read-out: GI
# SW-620 = assay: Cytotoxicity against human SW620 cells at 10 uM; settings: read-out: GI
# HL-60(TB) = assay: Cytotoxicity against human HL-60(TB) cells at 10 uM; settings: read-out: GI
# PC-3 = assay: Cytotoxicity against human PC3 cells at 10 uM; settings: read-out: GI
# MDA-MB-468 = assay: Cytotoxicity against human MDA-MB-468 cells at 10 uM; settings: read-out: GI
# OVCAR-3 = assay: Cytotoxicity against human OVCAR3 cells at 10 uM; settings: read-out: GI
# HOP-92 = assay: Cytotoxicity against human HOP92 cells at 10 uM; settings: read-out: GI
# MCF7 = assay: Cytotoxicity against human MCF7 cells at 10 uM; settings: read-out: GI
# DU-145 = assay: Cytotoxicity against human DU145 cells at 10 uM
# NCI-H460 = assay: Cytotoxicity against human NCI-H460 cells at 10 uM; settings: read-out: GI
# NCI/ADR-RES = assay: Cytotoxicity against human NCI-ADR-RES cells at 10 uM
# SF-268 = assay: Cytotoxicity against human SF268 cells at 10 uM; settings: read-out: GI
# LOX IMVI = assay: Cytotoxicity against human LOXIMVI cells at 10 uM; settings: read-out: GI
# T47D = assay: Cytotoxicity against human T47D cells at 10 uM; settings: read-out: GI
# A549 = assay: Cytotoxicity against human A549 cells at 10 uM; settings: read-out: GI
# SNB-75 = assay: Cytotoxicity against human SNB75 cells at 10 uM; settings: read-out: GI
# MOLT-4 = assay: Cytotoxicity against human MOLT4 cells at 10 uM; settings: read-out: GI
# SK-MEL-2 = assay: Cytotoxicity against human SK-MEL-2 cells at 10 uM; settings: read-out: GI
# [1] = Cytotoxicity against human Hs 578T cells at 10 uM; settings: read-out: GI
# UACC-62 = assay: Cytotoxicity against human UACC62 cells at 10 uM; settings: read-out: GI
# SR = assay: Cytotoxicity against human SR cells at 10 uM; settings: read-out: GI
# HT-29 = assay: Cytotoxicity against human HT-29 cells at 10 uM
# KM12 = assay: Cytotoxicity against human KM12 cells at 10 uM; settings: read-out: GI
# K562 = assay: Cytotoxicity against human K562 cells at 10 uM; settings: read-out: GI
# A498 = assay: Cytotoxicity against human A498 cells at 10 uM; settings: read-out: GI
structure (smiles),measurement,setting,value
Cc1cc(S(=O)(=O)NC(=N)NCc2ccc(S(N)(=O)=O)cc2)c(SCc2ccccc2)cc1Cl,inhibition of growth at 10 µM,RPMI-8226,41%
same,inhibition of growth at 10 µM,SW-620,4%
same,inhibition of growth at 10 µM,HL-60(TB),28%
same,inhibition of growth at 10 µM,PC-3,36%
same,inhibition of growth at 10 µM,MDA-MB-468,45%
same,inhibition of growth at 10 µM,OVCAR-3,24%
same,inhibition of growth at 10 µM,HOP-92,63%
same,inhibition of growth at 10 µM,MCF7,37%
same,growth inhibition (GI),DU-145,inactive
same,inhibition of growth at 10 µM,NCI-H460,10%
same,growth inhibition (GI),NCI/ADR-RES,inactive
same,inhibition of growth at 10 µM,SF-268,16%
same,inhibition of growth at 10 µM,LOX IMVI,12%
same,inhibition of growth at 10 µM,T47D,35%
same,inhibition of growth at 10 µM,A549,21%
same,inhibition of growth at 10 µM,SNB-75,43%
same,inhibition of growth at 10 µM,MOLT-4,31%
same,inhibition of growth at 10 µM,SK-MEL-2,32%
same,inhibition of growth at 10 µM,[1],44%
same,inhibition of growth at 10 µM,UACC-62,49%
same,inhibition of growth at 10 µM,SR,29%
same,growth inhibition (GI),HT-29,inactive
same,inhibition of growth at 10 µM,KM12,16%
same,inhibition of growth at 10 µM,K562,34%
same,inhibition of growth at 10 µM,A498,25%
